Assay results: PubChem BioAssay (NCI)
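Each compound was tested at five concentrations against cells in 96-well plates for 48 hours. GI50 = concentration required for 50% inhibition of growth. TGI marks complete inhibition of growth.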

What was measured:
Assay in all cases: growth of human tumour cells (NCI), 48 h
786-0 renal = system: 786-0 renal
A498 renal = system: A498 renal
A549 NSCLC = system: A549 NSCLC
ACHN renal = system: ACHN renal
BT-549 breast = system: BT-549 breast
CAKI-1 renal = system: CAKI-1 renal
CCRF-CEM leukemia = system: CCRF-CEM leukemia
COLO 205 colon = system: COLO 205 colon
DU-145 prostate = system: DU-145 prostate
EKVX NSCLC = system: EKVX NSCLC
HCC-2998 colon = system: HCC-2998 colon
HCT-116 colon = system: HCT-116 colon
HCT-15 colon = system: HCT-15 colon
HL-60(TB) leukemia = system: HL-60(TB) leukemia
HOP-62 NSCLC = system: HOP-62 NSCLC
HOP-92 NSCLC = system: HOP-92 NSCLC
HS 578T breast = system: HS 578T breast
HT29 colon = system: HT29 colon
IGROV1 ovarian = system: IGROV1 ovarian
K-562 leukemia = system: K-562 leukemia
KM12 colon = system: KM12 colon
LOX IMVI melanoma = system: LOX IMVI melanoma
M14 melanoma = system: M14 melanoma
MALME-3M melanoma = system: MALME-3M melanoma
MCF7 breast = system: MCF7 breast
MDA-MB-231 breast = system: MDA-MB-231 breast
MDA-MB-435 = system: MDA-MB-435
MOLT-4 leukemia = system: MOLT-4 leukemia
NCI-H226 lung = system: NCI-H226 lung
NCI-H23 lung = system: NCI-H23 lung
NCI-H460 lung = system: NCI-H460 lung
NCI-H522 lung = system: NCI-H522 lung
NCI/ADR-RES ovarian = system: NCI/ADR-RES ovarian
OVCAR-3 ovarian = system: OVCAR-3 ovarian
OVCAR-4 ovarian = system: OVCAR-4 ovarian
OVCAR-5 ovarian = system: OVCAR-5 ovarian
OVCAR-8 ovarian = system: OVCAR-8 ovarian
PC-3 prostate = system: PC-3 prostate
RPMI-8226 leukemia = system: RPMI-8226 leukemia
RXF 393 renal = system: RXF 393 renal
SF-268 CNS = system: SF-268 CNS
SF-295 CNS = system: SF-295 CNS
SF-539 CNS = system: SF-539 CNS
SK-MEL-2 melanoma = system: SK-MEL-2 melanoma
SK-MEL-28 melanoma = system: SK-MEL-28 melanoma
SK-MEL-5 melanoma = system: SK-MEL-5 melanoma
SK-OV-3 ovarian = system: SK-OV-3 ovarian
SN12C renal = system: SN12C renal
SNB-19 CNS = system: SNB-19 CNS
SNB-75 CNS = system: SNB-75 CNS
SR leukemia = system: SR leukemia
SW-620 colon = system: SW-620 colon
T-47D breast = system: T-47D breast
TK-10 renal = system: TK-10 renal
U251 CNS = system: U251 CNS
UACC-257 melanoma = system: UACC-257 melanoma
UACC-62 melanoma = system: UACC-62 melanoma
UO-31 renal = system: UO-31 renal

In the case of `CCCCN=C(N)c1ccc(N2CCCN(c3ccc(C(N)=NCCCC)cc3)CC2)cc1`, the GI50 (786-0 renal) is reported as > 74.6 µM, the TGI (786-0 renal) is reported as > 100 µM and the GI50 (A498 renal) is reported as 0.529 µM. The TGI (A498 renal) was 30.3 µM, the GI50 (A549 NSCLC) was 4.07 µM and the TGI (A549 NSCLC) was > 100 µM. For the same compound, the GI50 (ACHN renal) was > 21.9 µM, the TGI (ACHN renal) was > 100 µM and the GI50 (BT-549 breast) was 14.4 µM. For the same compound, the TGI (BT-549 breast) was > 58.3 µM, the GI50 (CAKI-1 renal) was > 72.3 µM and the TGI (CAKI-1 renal) was > 100 µM. For the same compound, the GI50 (CCRF-CEM leukemia) was 16.3 µM, the TGI (CCRF-CEM leukemia) was > 100 µM and the GI50 (COLO 205 colon) was 6.82 µM. For the same compound, the TGI (COLO 205 colon) was > 100 µM, the GI50 (DU-145 prostate) was 25.1 µM and the TGI (DU-145 prostate) was > 100 µM. For the same compound, the GI50 (EKVX NSCLC) was 10.6 µM, the TGI (EKVX NSCLC) was > 100 µM and the GI50 (HCC-2998 colon) was 8.88 µM. For the same compound, the TGI (HCC-2998 colon) was 58.2 µM, the GI50 (HCT-116 colon) was 21 µM and the TGI (HCT-116 colon) was > 100 µM. For the same compound, the GI50 (HCT-15 colon) was > 100 µM, the TGI (HCT-15 colon) was > 100 µM and the TGI (HL-60(TB) leukemia) was 0.159 µM. The GI50 (HOP-62 NSCLC) was 15.8 µM, the TGI (HOP-62 NSCLC) was > 90.1 µM and the GI50 (HOP-92 NSCLC) was 14.6 µM. For the same compound, the TGI (HOP-92 NSCLC) was > 84 µM, the GI50 (HS 578T breast) was 5.02 µM and the TGI (HS 578T breast) was > 90.7 µM. For the same compound, the GI50 (HT29 colon) was 10.7 µM, the TGI (HT29 colon) was > 59.7 µM and the GI50 (IGROV1 ovarian) was 24.5 µM. For the same compound, the TGI (IGROV1 ovarian) was > 85.9 µM, the GI50 (K-562 leukemia) was 3.69 µM and the TGI (K-562 leukemia) was > 100 µM. The GI50 (KM12 colon) was 5.72 µM, the TGI (KM12 colon) was 47.8 µM and the GI50 (LOX IMVI melanoma) was 22.5 µM. For the same compound, the TGI (LOX IMVI melanoma) was > 67.6 µM, the GI50 (M14 melanoma) was 43.1 µM and the TGI (M14 melanoma) was > 100 µM. The GI50 (MALME-3M melanoma) was 1 µM, the TGI (MALME-3M melanoma) was 26.2 µM and the GI50 (MCF7 breast) was 7.44 µM. For the same compound, the TGI (MCF7 breast) was > 100 µM, the GI50 (MDA-MB-231 breast) was 27.7 µM and the TGI (MDA-MB-231 breast) was > 100 µM. For the same compound, the GI50 (MDA-MB-435) was 14.8 µM, the TGI (MDA-MB-435) was > 96.6 µM and the GI50 (MOLT-4 leukemia) was 25.2 µM. For the same compound, the TGI (MOLT-4 leukemia) was > 100 µM, the GI50 (NCI-H226 lung) was 1.66 µM and the TGI (NCI-H226 lung) was 99.8 µM. The GI50 (NCI-H23 lung) was 5.67 µM, the TGI (NCI-H23 lung) was > 100 µM and the GI50 (NCI-H460 lung) was 4.15 µM. For the same compound, the TGI (NCI-H460 lung) was 97.6 µM, the GI50 (NCI-H522 lung) was 11.8 µM and the TGI (NCI-H522 lung) was > 100 µM. For the same compound, the GI50 (NCI/ADR-RES ovarian) was > 100 µM, the TGI (NCI/ADR-RES ovarian) was > 100 µM and the GI50 (OVCAR-3 ovarian) was 8.73 µM. The TGI (OVCAR-3 ovarian) was > 81.7 µM, the GI50 (OVCAR-4 ovarian) was 83.1 µM and the TGI (OVCAR-4 ovarian) was > 100 µM. The GI50 (OVCAR-5 ovarian) was 45.7 µM, the TGI (OVCAR-5 ovarian) was > 100 µM and the GI50 (OVCAR-8 ovarian) was 14.1 µM. The TGI (OVCAR-8 ovarian) was > 100 µM, the GI50 (PC-3 prostate) was 11.5 µM and the TGI (PC-3 prostate) was > 100 µM. For the same compound, the GI50 (RPMI-8226 leukemia) was 5.37 µM, the TGI (RPMI-8226 leukemia) was > 59.8 µM and the TGI (RXF 393 renal) was > 68.3 µM. The GI50 (SF-268 CNS) was 8.53 µM, the TGI (SF-268 CNS) was > 100 µM and the GI50 (SF-295 CNS) was 6.39 µM. The TGI (SF-295 CNS) was 57.6 µM, the GI50 (SF-539 CNS) was 7.34 µM and the TGI (SF-539 CNS) was > 50.1 µM. For the same compound, the GI50 (SK-MEL-2 melanoma) was 12.3 µM, the TGI (SK-MEL-2 melanoma) was 44.6 µM and the GI50 (SK-MEL-28 melanoma) was 31.2 µM. The TGI (SK-MEL-28 melanoma) was > 100 µM, the GI50 (SK-MEL-5 melanoma) was 5.04 µM and the TGI (SK-MEL-5 melanoma) was 21.7 µM. For the same compound, the GI50 (SK-OV-3 ovarian) was > 100 µM, the TGI (SK-OV-3 ovarian) was > 100 µM and the GI50 (SN12C renal) was 16.6 µM. For the same compound, the TGI (SN12C renal) was > 100 µM, the GI50 (SNB-19 CNS) was > 21.4 µM and the TGI (SNB-19 CNS) was > 100 µM. The GI50 (SNB-75 CNS) was 6.29 µM, the TGI (SNB-75 CNS) was > 100 µM and the GI50 (SR leukemia) was 1.36 µM. For the same compound, the TGI (SR leukemia) was 4.44 µM, the GI50 (SW-620 colon) was 13.6 µM and the TGI (SW-620 colon) was > 100 µM. For the same compound, the GI50 (T-47D breast) was 10.9 µM, the TGI (T-47D breast) was > 100 µM and the GI50 (TK-10 renal) was 11.4 µM. For the same compound, the TGI (TK-10 renal) was > 84.7 µM, the GI50 (U251 CNS) was 4.81 µM and the TGI (U251 CNS) was > 100 µM. For the same compound, the GI50 (UACC-257 melanoma) was 10 µM, the TGI (UACC-257 melanoma) was 66.8 µM and the GI50 (UACC-62 melanoma) was 7.58 µM. For the same compound, the TGI (UACC-62 melanoma) was 27.5 µM, the GI50 (UO-31 renal) was > 66.1 µM and the TGI (UO-31 renal) was > 100 µM.
